Results from US20240270809A1, “ORAL GLP RECEPTOR AGONISTS” (priority 2020, published 2024).
One block for each compound: values may come before it. Positions of bridges follow the written chain, without caps; N, C: chain ends. Non-standard residues stand in square brackets, D forms with d. Residues, ends and D or L forms follow the SMILES beside them. *: point of attachment. Malonyl(2,2-Me2,histaminyl) = CC(C)(C(=O)NCCc1cnc[nH]1)C(=O)*; Ala(1H-tetrazol-5-yl) = N[C@@H](Cc1nnn[nH]1)C(=O)O; αMePhe(2-F) = C[C@](N)(Cc1ccccc1F)C(=O)O; Nle = CCCC[C@H](N)C(=O)O; Aib = CC(C)(N)C(=O)O

What was measured:
[1] = Stability of peptides in Fasted-State Simulated Intestinal Fluid (FaSSIF); assay type: in vitro ADME; settings: FaSSIF with 10 mg/ml pancreatin, 37° C.; for remaining at 0.25 h: FaSSIF pH 6.5 with 10 mg/ml pancreatin, t = 15 mins; for remaining at 0.5 h: t=30 mins, pH 6.5, 10 mg/ml pancreatin
Procedure: Stability of peptides was tested in Fasted-State Simulated Intestinal Fluid (FaSSIF) prepared according to manufacturer's protocol (Biorelevant, art.no. FFF01, pH 6.5). […] FaSSIF was pre-incubated for 15 min at 37° C. and spiked with test and reference item working solutions. Experiments were conducted in duplicate in a non-serial manner. The total incubation volume per replicate was 150 μl. Sampling time points for test items were 0, 0.5, 2, 5, 10, 15 and 30 min. All samples and calibration standards (prepared in FaSSIF) were precipitated by addition of 300 μl precipitant (ACN / 2% acetic acid / 0.2% HFBA, (precipitation reagent, PR)) containing internal standard (ISTD) to 150 μl sample. After incubation for 1 h at room temperature all samples were centrifuged for 10 min at 2,200×g (room temperature).

human GLP2 receptor = target: T1, human GLP2 receptor (Homo sapiens, UniProt O95838); assay: cAMP accumulation assay, functional agonism of human GLP2 receptor; assay type: cell-based; settings: HEK cells infected with human GLP2 receptor BacMam virus, HTRF cAMP; for Emax: HEK293, read-out: Human GLP-2R agonist cAMP Emax; for EC50: read-out: Human GLP-2R agonist cAMP pEC50 (converted)
T1 construct: expressed in transfected cells; host or cells: HEK cells, BacMam virus transduction
T1 sequence (O95838 1-553): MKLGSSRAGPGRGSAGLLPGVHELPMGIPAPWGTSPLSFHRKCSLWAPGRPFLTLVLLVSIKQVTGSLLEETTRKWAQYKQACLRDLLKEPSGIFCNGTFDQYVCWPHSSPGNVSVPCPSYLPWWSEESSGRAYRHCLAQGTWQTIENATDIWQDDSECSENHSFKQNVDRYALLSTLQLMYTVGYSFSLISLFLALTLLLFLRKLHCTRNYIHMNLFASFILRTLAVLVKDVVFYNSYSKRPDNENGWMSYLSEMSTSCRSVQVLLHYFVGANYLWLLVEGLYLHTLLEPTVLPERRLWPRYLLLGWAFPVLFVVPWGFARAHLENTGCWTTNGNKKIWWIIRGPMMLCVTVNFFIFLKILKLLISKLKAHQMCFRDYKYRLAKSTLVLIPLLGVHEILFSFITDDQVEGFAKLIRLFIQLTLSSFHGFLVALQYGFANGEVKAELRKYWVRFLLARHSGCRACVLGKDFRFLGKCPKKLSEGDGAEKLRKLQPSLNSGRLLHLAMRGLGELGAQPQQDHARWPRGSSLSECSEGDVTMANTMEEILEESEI
In short: (§1)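 cAMP read by HTRF detection reagents in lysis buffer following 45 min agonist exposure at 37 °C. Cells: frozen HEK transduced for 24 h with GLP1 or GLP2 receptor BacMam, suspended in HBSS plus 0.5 mM IBMX.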

human GLP1 receptor = target: T2, human GLP1 receptor (Homo sapiens, UniProt P43220); assay: cAMP accumulation assay, functional agonism of human GLP1 receptor; assay type: cell-based; settings: HEK cells infected with human GLP1 receptor BacMam virus, HTRF cAMP; for Emax: HEK293, read-out: Human GLP-1R agonist cAMP Emax; for EC50: read-out: Human GLP-1R agonist cAMP pEC50 (converted)
T2 construct: expressed in transfected cells; host or cells: HEK cells, BacMam virus transduction
In short: as §1

T2 sequence (P43220 24-463): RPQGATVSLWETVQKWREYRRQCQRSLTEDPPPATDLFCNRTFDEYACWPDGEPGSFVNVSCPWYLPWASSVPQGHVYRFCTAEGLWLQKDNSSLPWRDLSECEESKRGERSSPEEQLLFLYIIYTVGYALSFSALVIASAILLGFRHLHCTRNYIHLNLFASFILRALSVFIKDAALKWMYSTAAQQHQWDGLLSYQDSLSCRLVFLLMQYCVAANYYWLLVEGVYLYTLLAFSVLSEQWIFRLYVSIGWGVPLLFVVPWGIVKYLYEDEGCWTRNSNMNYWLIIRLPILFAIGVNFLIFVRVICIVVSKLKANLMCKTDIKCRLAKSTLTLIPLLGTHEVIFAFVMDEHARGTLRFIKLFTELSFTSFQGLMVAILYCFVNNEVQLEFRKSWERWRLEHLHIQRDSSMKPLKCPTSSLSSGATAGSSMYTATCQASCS

SMILES: CCCC[C@H](NC(=O)[C@H](CCC(=O)O)NC(=O)[C@H](CC(=O)O)NC(=O)[C@H](CO)NC(=O)[C@H](Cc1ccccc1)NC(=O)[C@H](CO)NC(=O)CNC(=O)[C@H](Cc1nn[nH]n1)NC(=O)C(C)(C)C(=O)NCCc1c[nH]cn1)C(=O)N[C@H](Cc1ccccc1)C(=O)N[C@H](C(=O)N[C@H](C(=O)N[C@@H](CC(C)C)C(=O)N[C@@H](CC(=O)O)C(=O)N[C@H]1CCC(=O)NCCCC[C@@H](C(=O)N[C@@H](CC(=O)O)C(=O)N[C@@H](Cc2ccccc2)C(=O)N[C@H](C(=O)N[C@@H](CC(N)=O)C(=O)N[C@@H](Cc2c[nH]c3ccccc23)C(=O)N[C@@H](CC(C)C)C(=O)N[C@H](C(=O)N[C@@H](CCC(N)=O)C(=O)N[C@H](C(=O)N[C@H]2CCC(=O)NCCCC[C@@H](C(N)=O)NC(=O)[C@H]([C@@H](C)O)NC(=O)[C@H]([C@@H](C)CC)NC2=O)[C@@H](C)O)[C@@H](C)CC)[C@@H](C)CC)NC(=O)[C@H](C)NC(=O)[C@H](C)NC(=O)[C@H](CCCCN)NC1=O)[C@@H](C)CC)[C@@H](C)O [Example 107] ({Malonyl(2,2-Me2,histaminyl)}-[Ala(1H-tetrazol-5-yl)]GSFSDE[Nle][dF]TILDEKAAKDFINWLIQTEITK-NH2; lactam 14-18, 28-31)
remaining at 0.25 h [1]: 7.4%
Emax (human GLP2 receptor): 101%
EC50 (human GLP2 receptor): 0.02 nM
Emax (human GLP1 receptor): 96.9%
EC50 (human GLP1 receptor): 0.02 nM

SMILES: CCCC[C@H](NC(=O)[C@H](CCC(=O)O)NC(=O)[C@@H]1CCCCNC(=O)CC[C@H](NC(=O)[C@H](CC(=O)O)NC(=O)C(C)(C)NC(=O)[C@@H](N)Cc2c[nH]cn2)C(=O)N[C@@H](CO)C(=O)N[C@@H](Cc2ccccc2)C(=O)N[C@@H](CO)C(=O)N1)C(=O)N[C@H](Cc1ccccc1)C(=O)N[C@H](C(=O)N[C@H](C(=O)N[C@@H](CC(C)C)C(=O)N[C@@H](CC(=O)O)C(=O)N[C@H]1CCCCNC(=O)C[C@@H](C(=O)N[C@@H](CC(=O)O)C(=O)N[C@@H](Cc2ccccc2)C(=O)N[C@H](C(=O)N[C@@H](CC(N)=O)C(=O)N[C@@H](Cc2c[nH]c3ccccc23)C(=O)N[C@@H](CC(C)C)C(=O)N[C@H](C(=O)N[C@@H](CCC(N)=O)C(=O)N[C@H](C(=O)N[C@@H](CCCCN)C(=O)N[C@H](C(=O)N[C@H](C(=O)N[C@@H](CC(=O)O)C(N)=O)[C@@H](C)O)[C@@H](C)CC)[C@@H](C)O)[C@@H](C)CC)[C@@H](C)CC)NC(=O)[C@H](C)NC(=O)[C@H](C)NC(=O)[C@H](CCCCN)NC1=O)[C@@H](C)CC)[C@@H](C)O [Example 110] (H-H[Aib]DESFSKE[Nle][dF]TILDKKAADDFINWLIQTKITD-NH2; lactam 4-8, 16-20; N-terminus and C-terminus assumed)
remaining at 0.25 h [1]: 5%
Emax (human GLP2 receptor): 103%
EC50 (human GLP2 receptor): 0.0158 nM
Emax (human GLP1 receptor): 88.1%
EC50 (human GLP1 receptor): 3.98 nM

SMILES: CCCC[C@@H]1NC(=O)[C@H](CCC(=O)O)NC(=O)[C@@H](NC(=O)[C@H](CO)NC(=O)[C@H](Cc2ccccc2)NC(=O)[C@H](CO)NC(=O)CNC(=O)[C@H](CC(=O)O)NC(=O)C(C)(C)NC(=O)[C@@H](N)Cc2c[nH]cn2)CCCCNC(=O)C[C@@H](C(=O)N[C@H](C(=O)N[C@@H](CC(C)C)C(=O)N[C@@H](CC(=O)O)C(=O)N[C@H]2CCC(=O)NCCCC[C@@H](C(=O)N[C@@H](CC(=O)O)C(=O)N[C@@H](Cc3ccccc3)C(=O)N[C@H](C(=O)N[C@@H](CC(N)=O)C(=O)N[C@@H](Cc3c[nH]c4ccccc34)C(=O)N[C@@H](CC(C)C)C(=O)N[C@H](C(=O)N[C@@H](CCC(N)=O)C(=O)N[C@H]3CCC(=O)NCCCC[C@@H](C(N)=O)NC(=O)[C@H]([C@@H](C)O)NC(=O)[C@H]([C@@H](C)CC)NC(=O)[C@H](CCCCN)NC3=O)[C@@H](C)CC)[C@@H](C)CC)NC(=O)[C@H](C)NC(=O)[C@H](C)NC(=O)[C@H](CCCCN)NC2=O)[C@@H](C)CC)NC(=O)[C@@H](Cc2ccccc2)NC1=O [Example 4] (H-H[Aib]DGSFSKE[Nle][dF]DILDEKAAKDFINWLIQEKITK-NH2; lactam 8-12, 16-20, 29-33 (inferred); C-terminus assumed)
remaining at 0.5 h [1]: 4.3%
Emax (human GLP2 receptor): 103%
EC50 (human GLP2 receptor): 0.01 nM
Emax (human GLP1 receptor): 94.7%
EC50 (human GLP1 receptor): 0.501 nM

Second part, the compound after the results:

remaining at 0.25 h [1]: 22%
Emax (human GLP2 receptor): 102%
EC50 (human GLP2 receptor): 0.0251 nM
Emax (human GLP1 receptor): 100%
EC50 (human GLP1 receptor): 7.94 nM
SMILES: CCCC[C@H](NC(=O)[C@H](CCC(=O)O)NC(=O)[C@H](CC(=O)O)NC(=O)[C@H](CO)NC(=O)[C@H](Cc1ccccc1)NC(=O)[C@H](CO)NC(=O)CNC(=O)[C@H](CC(=O)O)NC(=O)C(C)(C)NC(=O)[C@@H](N)Cc1c[nH]cn1)C(=O)N[C@H](Cc1ccccc1)C(=O)N[C@H](C(=O)N[C@H](C(=O)N[C@@H](CC(C)C)C(=O)N[C@@H](CC(=O)O)C(=O)N[C@@H](CC(C)C)C(=O)N[C@@H](CCCCN)C(=O)N[C@@H](C)C(=O)N[C@@H](C)C(=O)N[C@@H](CCCCN)C(=O)N[C@@H](CC(=O)O)C(=O)N[C@@H](Cc1ccccc1)C(=O)N[C@H](C(=O)N[C@@H](CC(N)=O)C(=O)N[C@@H](Cc1c[nH]c2ccccc12)C(=O)N[C@@H](CC(C)C)C(=O)N[C@H](C(=O)N[C@@H](CCC(N)=O)C(=O)N[C@H](C(=O)N[C@H]1CCC(=O)NCCCC[C@@H](C(N)=O)NC(=O)[C@H]([C@@H](C)O)NC(=O)[C@H]([C@@H](C)CC)NC1=O)[C@@H](C)O)[C@@H](C)CC)[C@@H](C)CC)[C@@H](C)CC)[C@@H](C)O [Example 90] (H-H[Aib]DGSFSDE[Nle][dF]TILDLKAAKDFINWLIQTEITK-NH2; lactam 30-33 (inferred); C-terminus assumed)

remaining at 0.5 h [1]: 17.3%
Emax (human GLP2 receptor): 104%
EC50 (human GLP2 receptor): 0.0158 nM
Emax (human GLP1 receptor): 97.8%
EC50 (human GLP1 receptor): 0.1 nM
SMILES: CCCC[C@@H]1NC(=O)[C@H](CCC(=O)O)NC(=O)[C@@H](NC(=O)[C@H](CO)NC(=O)[C@](C)(Cc2ccccc2F)NC(=O)[C@H](CO)NC(=O)CNC(=O)[C@H](CC(=O)O)NC(=O)C(C)(C)NC(=O)[C@@H](N)Cc2c[nH]cn2)CCCCNC(=O)C[C@@H](C(=O)N[C@H](C(=O)N[C@@H](CC(C)C)C(=O)N[C@@H](CC(=O)O)C(=O)N[C@H]2CCC(=O)NCCCC[C@@H](C(=O)N[C@@H](CC(=O)O)C(=O)N[C@@H](Cc3ccccc3)C(=O)N[C@H](C(=O)N[C@@H](CC(N)=O)C(=O)N[C@@H](Cc3c[nH]c4ccccc34)C(=O)N[C@@H](CC(C)C)C(=O)N[C@H](C(=O)N[C@@H](CCC(N)=O)C(=O)N[C@H]3CCC(=O)NCCCC[C@@H](C(N)=O)NC(=O)[C@H]([C@@H](C)O)NC(=O)[C@H]([C@@H](C)CC)NC(=O)[C@H](CCCCN)NC3=O)[C@@H](C)CC)[C@@H](C)CC)NC(=O)[C@H](C)NC(=O)[C@H](C)NC(=O)[C@H](CCCCN)NC2=O)[C@@H](C)CC)NC(=O)[C@@H](Cc2ccccc2)NC1=O [Example 18] (H-H[Aib]DGS[αMePhe(2-F)]SKE[Nle][dF]DILDEKAAKDFINWLIQEKITK-NH2; lactam 8-12, 16-20, 29-33; C-terminus assumed)
